Measurements reported in patent publication US10828301B2, “2,4-pyrimidinediamine compounds and their uses” (Rigel Pharmaceuticals, Inc, priority 2002, dated 2020).

Legend:
[1] = test system: cultured human mast cells (CHMC); assay: CHMC low cell density ionomycin activation: tryptase assay; assay type: cell-based; conditions: read-out: CHMC Ionomycin Tryptase
[2] = test system: cultured human mast cells (CHMC); assay: CHMC low cell density IgE activation: tryptase and LTC4 assays; assay type: cell-based
In short: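 Cultured human mast cells at low density (1000-1500 per well) rested 1 h at 37° C, then stimulated with anti-IgE for 30 min at 37° C. Supernatant tryptase measured with fluorogenic substrate (30 min, room temperature); LTC4 quantified by ELISA on diluted supernatant.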

[3] = Homo sapiens, Mast cell, read-out: CHMC anti-IgE Tryptase
[4] = Homo sapiens, Mast cell, Low Density CHMC, ionomycin activation, tryptase readout
[5] = Homo sapiens, Mast cell, Low Density CHMC, anti-IgE activation, tryptase readout, read-out: CHMC anti-IgE Tryptase
[6] = Low Density CHMC, ionomycin activation, tryptase readout
[7] = Low Density CHMC, anti-IgE activation, tryptase readout, read-out: CHMC anti-IgE Tryptase

SMILES | IC50 [1, 4] [µM] | IC50 [2, 5] [µM] | also measured
O=[N+]([O-])c1cccc(Nc2ncc(F)c(Nc3cccc([N+](=O)[O-])c3)n2)c1 [Compound R950160, N2,N4-Bis(3-nitrophenyl)-5-fluoro-2,4-pyrimidinediamine] |  |  | IC50 ([1]; Homo sapiens, Mast cell): > 10 µM; IC50 [2, 3]: 1 µM
Oc1ccc(Nc2ncc(F)c(Nc3ccc(O)c(Cl)c3)n2)cc1Cl [Compound R926675, N2,N4-Bis(3-chloro-4-hydroxyphenyl)-5-fluoro-2,4-pyrimidinediamine] | > 10 | 0.63 | 
CNC(=O)C1Cc2cc(Nc3ncc(F)c(Nc4ccc(F)c(F)c4)n3)ccc2O1 (racemic) [Compound R927035, (±)-N4-(3,4-Difluorophenyl)-5-fluoro-N2-[2,3-dihydro-2-(N-methylamino)carbonylbenzofuran-5-yl]-2,4-pyrimidinediamine] | > 10 | 0.583 | 
Oc1cccc(Nc2ncc(F)c(NCc3csc4ccc(Cl)cc34)n2)c1 [Compound R926722, N4-[(5-Chloro-1-benzothiophen-3-yl)methyl]-5-fluoro-N2-(3-hydroxyphenyl)-2,4-pyrimidinediamine] | > 10 | 5.96 | 
CNC(=O)COc1cccc(Nc2ncc(F)c(Nc3ccc4c(c3)C=CCC4)n2)c1 [Compound R926944, 5-Fluoro-N4-(3,4-dihydronaphthalen-7-yl)-N2-[3-[(N-methylamino)carbonylmethyleneoxy]phenyl]-2,4-pyrimidinediamine] |  |  | IC50 [1, 6]: 99 µM; IC50 [2, 7]: 0.225 µM
Cc1cc(Nc2ncc(F)c(Nc3ccc4c(c3)N=CCO4)n2)cc(Cl)c1O [Compound R909255, N4-(1,4-Benzoxazin-6-yl)-N2-(3-chloro-4-hydroxy-5-methylphenyl)-5-fluoro-2,4-pyrimidinediamine] | > 10 | 0.244 | 
CNC(=O)COc1cccc(Nc2ncc(F)c(Nc3ccc(OCCO)nc3)n2)c1 [Compound R927023, 5-Fluoro-N4-[2-(2-hydroxyethyleneoxy)pyridin-5-yl]-N2-[3-(N-methylamino)carbonylmethyleneoxyphenyl]-2,4-pyrimidinediamine] |  |  | IC50 [1, 6]: > 10 µM; IC50 [2, 7]: 0.918 µM
CC(C)Oc1ccc(Nc2ncc(F)c(Nc3cccc(N)c3)n2)cc1 [Compound R950165, N4-(3-Aminophenyl)-5-fluoro-N2-(4-isopropoxyphenyl)-2,4-pyrimidinediamine] | > 10 | 1.29 | 
Clc1ccc(-c2cnc(Nc3ccc4c(c3)OCCO4)nc2Nc2ccc3c(c2)OCCO3)cc1 [Compound R925786, N2,N4-Bis(3,4-ethylenedioxyphenyl)-5-(4-chlorophenyl)-2,4-pyrimidinediamine] | > 10 | 1.85 | 
Nc1cc(Nc2ncc(F)c(Nc3ccc([N+](=O)[O-])c(N)c3)n2)ccc1[N+](=O)[O-] [Compound R950135, N2,N4-Bis(3-amino-4-nitrophenyl)-5-fluoro-2,4-pyrimidinediamine] |  |  | IC50 ([1]; Homo sapiens, Mast cell): > 10 µM; IC50 [2, 3]: 0.85 µM
Oc1cccc(Nc2nc(Nc3ccc4[nH]ccc4c3)ncc2F)c1 [Compound R926749, 5-Fluoro-N4-(3-hydroxyphenyl)-N2-[(1H)-indol-5-yl]-2,4-pyrimidinediamine] | > 10 | 0.472 | 
Fc1cnc(NC(c2ccc(Cl)cc2)c2ccc(Cl)cc2)nc1NC(c1ccc(Cl)cc1)c1ccc(Cl)cc1 [Compound R935006, N2,N4-Bis[di-(4-chlorophenyl)methyl]-5-fluoro-2,4-pyrimidinediamine] | 9.8 | 10 | 
COC(=O)c1cc2cc(Nc3ncc(F)c(Nc4cccc(N)c4)n3)ccc2o1 [Compound R950162, N4-(3-Aminophenyl)-5-fluoro-N2-(2-methoxycarbonylbenzofurane-5-yl)-2,4-pyrimidinediamine] | > 10 | 0.434 | 
Oc1cccc(Nc2nc(Nc3cccc(-c4nnn[nH]4)c3)ncc2F)c1 [Compound R926842, 5-Fluoro-N4-(3-hydroxyphenyl)-N2-[3-(tetrazol-5-yl)phenyl]-2,4-pyrimidinediamine] | > 10 | 7.73 | 
Nc1cc(Nc2ncc(F)c(Nc3cc(N)cc(C(F)(F)F)c3)n2)cc(C(F)(F)F)c1 [Compound R950140, N2,N4-Bis(3-amino-5-trifluoromethylphenyl)-5-fluoro-2,4-pyrimidinediamine] | > 10 | 2.83 | 
Oc1cccc(Nc2nc(NCC3COc4ccccc4O3)ncc2F)c1 (stereo not drawn) [Compound R950214, N2-(2,3-Dihydro-1,4-benzodioxin-2-ylmethyl)-5-fluoro-N4-(3-hydroxyphenyl)-2,4-pyrimidinediamine] | > 10 | 10 | 
Nc1cc(Nc2ccnc(Nc3ccc(Nc4ccccc4)c(N)c3)n2)ccc1Nc1ccccc1 [Compound R950123, N2,N4-Bis[3-amino-4-(N-phenylamino)-phenyl]-2,4-pyrimidinediamine] | 8.45 | 3.25 | 
CNC(=O)c1cc2cc(Nc3nc(Nc4ccc5c(c4)OCCO5)ncc3F)ccc2o1 [Compound R926491, N2-(3,4-Ethylenedioxyphenyl)-5-fluoro-N4-[2-(N-methylamino)carbonylbenzofuran-5-yl]-2,4-pyrimidinediamine] | > 10 | 1.16 | 
CCOC(=O)c1nc(Nc2cccc(O)c2)nc(Nc2cccc(O)c2)c1N [Compound R925856, 5-Amino-6-ethoxycarbonyl-N2,N4-bis(3-hydroxyphenyl)-2,4-pyrimidinediamine] | > 10 | 9.85 | 

Continued, in another order:

IC50 [1, 4] [µM] | IC50 [2, 5] [µM] | SMILES | also measured
> 10 | 0.598 | Oc1cccc(Nc2nc(Nc3ccc4cc[nH]c4c3)ncc2F)c1 [Compound R926751, 5-Fluoro-N4-(3-hydroxyphenyl)-N2-[(1H)-indol-6-yl]-2,4-pyrimidinediamine] | 
> 10 | 0.551 | CC(C)(CO)c1ccc(Nc2nc(Nc3ccc(OCCO)cc3)ncc2F)cc1 [Compound R935158, 5-Fluoro-N4-[4-(2-hydroxy-1,1-dimethylethyl)phenyl]-N2-[4-(2-hydroxyethoxy)phenyl]-2,4-pyrimidinediamine] | 
7.4 | 0.104 | O=C1COc2ccc(Nc3nc(Nc4cccc(O)c4)ncc3F)cc2N1 [Compound R908702, N4-(1,4-Benzoxazine-3-on-6-yl)-5-fluoro-N2-(3-hydroxyphenyl)-2,4-pyrimidinediamine] | 
> 10 | 0.439 | NC(=O)C=Nc1cccc(Nc2ncc(F)c(Nc3cccc(O)c3)n2)c1 [Compound R950219, N2-(3-Aminocarbonylmethyleneaminophenyl)-5-fluoro-N4-(3-hydroxyphenyl)-2,4-pyrimidinediamine] | 
8.87 | 0.554 | COC(=O)c1cc2cc(Nc3ncc(F)c(Nc4cccc(OC(C)C)c4)n3)ccc2o1 [Compound R926487, 5-Fluoro-N4-(3-isopropoxyphenyl)-N2-(2-methoxycarbonylbenzofuran-5-yl)-2,4-pyrimidinediamine] | IC50 ([2]; Homo sapiens, Mast cell, Low Density CHMC, anti-IgE activation, LTC4 readout, read-out: CHMC anti-IgE LTC4): 1.25 µM
> 10 | 1.06 | O=S(=O)(c1ccc(Nc2ncc(F)c(Nc3ccc4c(c3)OCCO4)n2)cc1)N1CCCC1 [Compound R926716, N4-(3,4-Ethylenedioxyphenyl)-5-fluoro-N2-[4-(tetrahydro-(1H)-pyrrol-1-ylsulfonyl)phenyl]-2,4-pyrimidinediamine] | 
> 10 | 0.244 | OCCOc1ccc(Nc2ncc(F)c(Nc3ccc4c(c3)OCCO4)n2)cc1 [Compound R945144, N4-(3,4-Ethylenedioxyphenyl)-5-fluoro-N2-[4-(2-hydroxyethyloxy)phenyl]-2,4-pyrimidinediamine] | 
> 10 | 0.274 | Oc1cccc(Nc2ncc(C(F)(F)F)c(Nc3cccc(O)c3)n2)c1 [Compound R925863, N2,N4-Bis(3-hydroxyphenyl)-5-trifluoromethyl-2,4-pyrimidinediamine] | 
> 10 | 0.862 | CC(C)(C)C(=O)Nc1cccc(Nc2ncc(F)c(Nc3cccc(O)c3)n2)c1 [Compound R940275, N2-(3-tert-Butylcarbonylaminophenyl)-N4-(3-hydroxyphenyl)-5-fluoro-2,4-pyrimidinediamine] | 
> 10 | 3.15 | Oc1cccc(Nc2cc(Nc3cccc(O)c3)nc(Nc3cccc(O)c3)n2)c1 [Compound R926409, N2,N4,N6-Tris(3-hydroxyphenyl)-2,4,6-pyrimidinetriamine] | 
> 10 | 2.9 | Oc1cccc(Nc2ncc(-c3ccccc3)c(Nc3cccc(O)c3)n2)c1 [Compound R925783, N2,N4-Bis(3-hydroxyphenyl)-5-phenyl-2,4-pyrimidinediamine] | 
> 10 | 2.31 | COc1ccc(Nc2ncc(F)c(Nc3ccc4c(c3)OCCO4)n2)c(OC)c1 [Compound R926789, N2-(2,4-Dimethoxyphenyl)-N4-(3,4-ethylenedioxyphenyl)-5-fluoro-2,4-pyrimidinediamine] | 
> 10 | 1.18 | OCc1cccc(Nc2nc(Nc3ccc4c(c3)OCCO4)ncc2F)c1 [Compound R925758, N2-(3,4-Ethylenedioxyphenyl)-5-fluoro-N4-[3-(hydroxymethyl)phenyl]-2,4-pyrimidinediamine] | 
> 10 | 3.58 | OCCOc1ccc(Nc2ncc(F)c(Nc3ccc4c(c3)N=CCO4)n2)cc1 [Compound R909248, N4-(1,4-Benzoxazin-6-yl)-5-fluoro-N2-[4-(2-hydroxyethyl)oxyphenyl]-2,4-pyrimidinediamine] | 
> 10 | 0.558 | CCOC(=O)C=Nc1cccc(Nc2ncc(F)c(Nc3ccc4c(c3)OCCO4)n2)c1 [Compound R950186, N4-(3,4-Ethylenedioxyphenyl)-N2-(3-ethoxycarbonylmethyleneaminophenyl)-5-fluoro-2,4-pyrimidinediamine] | 
